Laboratory results from PubChem BioAssay AID1845209 (Molecular Pharmacology Branch, DTP, NCI, 2023).

Test system: NCI-H211 tumor spheroids, viability percent test/control
Test: Anticancer human tumor NCI-H211 cell line growth inhibition;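 note: spheroids exposed to agents for seven days before readout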
Settings: spheroids with HUVEC and MSC; for IC50: curve of first compound; for viability, T/C: stronger effect = lower value
Text: Multicellular complex tumor spheroid response to DNA repair inhibitors in combination with DNA-damaging drugs
This study explores the anticancer activities of DNA-damaging drugs and inhibitors of DNA damage repair, both as single agents and in combinations. Complex tumor spheroids comprised of malignant cells, endothelial cells and mesenchymal stem cells served as an in vitro model for human solid tumors. This model system incorporates physiologically relevant features and patient-derived or established malignant cell lines with clinically relevant genetic alterations from many tumor types. Twenty-six patient-derived or established malignant cell lines were evaluated representing sarcoma, melanoma, small cell lung cancer (SCLC), non-small cell lung cancer (NSCLC), as well as bladder, ovarian and pancreatic cancers. The concentration ranges selected for each drug and investigational agent were based upon clinically achievable concentrations if the clinical Cmax of the agent was known.
Compounds. The drugs and compounds olaparib (NSC753686), talazoparib (NSC767125), berzosertib (NSC777718), elimusertib (NSC800525), nedisertib (NSC802822), VX-984 (NSC792969), AZD-1390 (NSC803789), temozolomide (NSC362856), topotecan (NSC609699), trabectedin (NSC813783), staurosporine (NSC755774), and gemcitabine (NSC613327) were obtained from the National Cancer Institute (NCI) Developmental Therapeutics Program Chemical Repository. The FDA-approved anticancer drug set is available from the Developmental Therapeutics Program at https://dtp.cancer.gov/organization/dscb/obtaining/available_plates.htm. […] The stock solutions were prepared in dimethyl sulfoxide (DMSO, Sigma-Aldrich, St. Louis, MO, cat. D2650) at 400-fold the tested concentration and stored at -70 degrees C. Prior to their use, the stock solutions were diluted in fresh medium and the final DMSO concentration in the assay was 0.25% (v/v). All drugs and investigational agents were tested over a range starting from a high concentration at or near the clinical Cmax and decreasing in half-log increments. If the clinical Cmax for an agent had not been determined, the highest concentration tested was 10 microM.
Cell Lines. The patient-derived cancer cell (PDC) lines: 156681-154-R-J1-PDC, 283228-195-R-J1-PDC, 287954-098-R-J1-PDC, 292921-168-R-J2-PDC, 349418-098-R-PDC, 425362-245-T-J1-PDC, 556581-035-R-J1-PDC, and BL0293-F563-PDC were received from the NCI Patient-Derived Models Repository (PDMR, https://pdmr.cancer.gov). The established cell lines HS-SY-2 (RRID:CVCL_8719), MPNST, and SYO-1 (RRID:CVCL_7146) were obtained from the Sloan Kettering Institute. The alveolar soft parts sarcoma cell line ASPS-1 (RRID:CVCL_S738) was established at the NCI and grown from internal seed stocks. The following established cell lines were purchased from the American Type Culture Collection (ATCC, Manassas, VA): G-401 (ATCC, cat. CRL-1441, RRID:CVCL_0270), SW982 (ATCC, cat. HTB-93, RRID:CVCL_1734), VA-ES-BJ (ATCC, cat. CRL-2138, RRID:CVCL_1785), NCI-H719 (ATCC, cat. CRL-5837, RRID:CVCL_1582), NCI-H196 (ATCC, cat. CRL-5823, RRID:CVCL_1509), NCI-H841 (ATCC, cat. CRL-5845, RRID:CVCL_1595), NCI-H1618 (ATCC, cat. CRL-5879, RRID:CVCL_1480), NCI-H1876 (ATCC, cat. CRL-5902, RRID:CVCL_1503), DMS 114 (ATCC, cat. CRL-2066; RRID:CVCL_1174), NCI-H211 (ATCC, cat. CRL-5824; RRID:CVCL_1529), and SW 1271 (ATCC, cat. CRL-2177, RRID:CVCL_1716). The small cell lung cancer cell line COR-L88 was purchased from Sigma-Aldrich (cat. 92031917-1VL, RRID:CVCL_1141). The non-small cell lung cancer cell lines NCI-H226 (RRID:CVCL_1544) and NCI-H322M (RRID:CVCL_1557) were established at the NCI and grown from internal seed stocks. Pooled donor human umbilical vein endothelial cells (HUVEC, Lonza, cat. CC-2519) and human mesenchymal stem cells (hMSC, Lonza, cat. PT-2501) were purchased from Lonza (Walkersville, MD).
Cell Culture. All cells were maintained in an incubator at 37 degrees C and 5% CO2 with 95% humidity. […]

[1] = second compound 30 pM, first compound 0.00949 µM
[2] = second compound 30 pM, first compound 0.03 µM
[3] = second compound 30 pM, first compound 0.0949 µM
[4] = second compound 30 pM, first compound 0.3 µM
[5] = second compound 30 pM, first compound 0.949 µM
[6] = second compound 30 pM, first compound 3 µM
[7] = second compound 94.9 pM, first compound 0.00949 µM
[8] = second compound 94.9 pM, first compound 0.03 µM
[9] = second compound 94.9 pM, first compound 0.0949 µM
[10] = second compound 94.9 pM, first compound 0.3 µM
[11] = second compound 94.9 pM, first compound 0.949 µM
[12] = second compound 94.9 pM, first compound 3 µM
[13] = second compound 0.0003 µM, first compound 0.00949 µM
[14] = second compound 0.0003 µM, first compound 0.03 µM
[15] = second compound 0.0003 µM, first compound 0.0949 µM
[16] = second compound 0.0003 µM, first compound 0.3 µM
[17] = second compound 0.0003 µM, first compound 0.949 µM
[18] = second compound 0.0003 µM, first compound 3 µM
[19] = second compound 0.000949 µM, first compound 0.00949 µM
[20] = second compound 0.000949 µM, first compound 0.03 µM
[21] = second compound 0.000949 µM, first compound 0.0949 µM
[22] = second compound 0.000949 µM, first compound 0.3 µM
[23] = second compound 0.000949 µM, first compound 0.949 µM
[24] = second compound 0.000949 µM, first compound 3 µM
[25] = second compound 0.003 µM, first compound 0.00949 µM
[26] = second compound 0.003 µM, first compound 0.03 µM
[27] = second compound 0.003 µM, first compound 0.0949 µM
[28] = second compound 0.003 µM, first compound 0.3 µM
[29] = second compound 0.003 µM, first compound 0.949 µM
[30] = second compound 0.003 µM, first compound 3 µM

Structure (SMILES)	IC50 (second compound 30 pM)	IC50 (second compound 94.9 pM)	IC50 (second compound 0.0003 µM)	IC50 (second compound 0.000949 µM)	IC50 (second compound 0.003 µM)	viability, T/C [1]	viability, T/C [2]	viability, T/C [3]	viability, T/C [4]	viability, T/C [5]	viability, T/C [6]	viability, T/C [7]	viability, T/C [8]	viability, T/C [9]	viability, T/C [10]	viability, T/C [11]	viability, T/C [12]	viability, T/C [13]	viability, T/C [14]	viability, T/C [15]	further results
Cc1sc2c(c1C)C(c1ccc(Cl)cc1)=NC(CC(=O)Nc1ccc(O)cc1)c1nnc(C)n1-2 (stereo not given) + COc1cc2c(cc1O)CCNC21CSC2c3c(OC(C)=O)c(C)c4c(c3C(COC1=O)N1C(O)C3Cc5cc(C)c(OC)c(O)c5C(C21)N3C)OCO4	< 9.49 nM	< 9.49 nM	< 9.49 nM	< 9.49 nM	< 9.49 nM	45.6%	4.36%	0.66%	0.42%	0.31%	0.33%	4.74%	0.91%	0.53%	0.42%	0.33%	0.43%	0.79%	0.61%	0.45%	viability, T/C [16]: 0.61%; viability, T/C [17]: 0.4%; viability, T/C [18]: 0.4%; viability, T/C [19]: 0.76%; viability, T/C [20]: 0.61%; viability, T/C [21]: 0.47%; viability, T/C [22]: 0.25%; viability, T/C [23]: 0.04%; viability, T/C [24]: 0.09%; viability, T/C [25]: 0.1%; viability, T/C [26]: 0.09%; viability, T/C [27]: 0.09%; viability, T/C [28]: 0.08%; viability, T/C [29]: 0.1%; viability, T/C [30]: 0.3%
CNCc1ccc(-c2cc(-c3nc(-c4ccc(S(=O)(=O)C(C)C)cc4)cnc3N)on2)cc1 + COc1cc2c(cc1O)CCNC21CSC2c3c(OC(C)=O)c(C)c4c(c3C(COC1=O)N1C(O)C3Cc5cc(C)c(OC)c(O)c5C(C21)N3C)OCO4	22.8 nM	< 9.49 nM	< 9.49 nM	< 9.49 nM	< 9.49 nM	93.2%	36.2%	2.15%	0.93%	0.77%	0.11%	8.16%	1.5%	1.02%	0.78%	0.59%	0.11%	0.82%	0.84%	0.73%	viability, T/C [16]: 0.7%; viability, T/C [17]: 0.5%; viability, T/C [18]: 0.1%; viability, T/C [19]: 1.01%; viability, T/C [20]: 0.87%; viability, T/C [21]: 0.88%; viability, T/C [22]: 0.66%; viability, T/C [23]: 0.34%; viability, T/C [24]: 0.11%; viability, T/C [25]: 0.11%; viability, T/C [26]: 0.11%; viability, T/C [27]: 0.09%; viability, T/C [28]: 0.1%; viability, T/C [29]: 0.1%; viability, T/C [30]: 0.15%
